Measured values taken from US6750246B1, “C-4 carbonate taxanes” (Bristol-Myers Squibb Company, priority 2000, dated 2004).

Assays:
[1] = tested on: A2780 human ovarian tumor xenograft; experiment: In vivo oral antitumor activity vs Sc A2780; settings: po gavage; for Oral Efficacy vs. Sc A2780 Log Cell Kill: q2d x 5, at optimal or maximum tolerated dose of Table III (mg/kg per administration), log cell kill = (T-C)/(TVDT x 3.32); for Oral Efficacy vs. Sc A2780 (Cures/Treated): q2d x 5, same dose as log cell kill, cure = tumor of 35 mg or less at termination
Experimental: The experiments were carried out using athymic (“nude”) mice. […] The compound was administered at the dose indicated in Table III, namely, once daily every other day for five treatments (i.e. q2dx5).

human or animal models = settings: cited from earlier work; for Oral activity in human or animal models: prior art
[2] = administered orally; quote from WO98/53811; cited from earlier work
human tumor xenografts = experiment: Orally administered paclitaxel against human tumor xenografts; settings: oral; athymic mice or athymic rats
tumors in mice = settings: AACR 1999 abstract 1905; cited from earlier work

## COC(=O)O[C@@]12COC1C[C@H](O)[C@@]1(C)C(=O)[C@H](OC(C)=O)C3=C(C)[C@@H](OC(=O)[C@H](O)[C@@H](NC(=O)OC(C)(C)C)C(C)(C)C)C[C@@](O)([C@@H](OC(=O)c4ccccc4)C21)C3(C)C (some centres unmarked) [Ia, 3′-tert-Butyl-3′-N-tert-butyloxycarbonyl-4-deacetyl-3′-dephenyl-3′-N-debenzoyl-4-O-methoxycarbonyl-paclitaxel]
[1]
  Oral Efficacy vs. Sc A2780 Log Cell Kill: 4.4
  Oral Efficacy vs. Sc A2780 (Cures/Treated): 0/8

## COC(=O)O[C@@]12CO[C@@H]1C[C@H](O)[C@@]1(C)C(=O)[C@H](OC(C)=O)C3=C(C)[C@@H](OC(=O)[C@H](O)[C@@H](NC(=O)OC(C)(C)C)c4ccccc4)C[C@@](O)([C@@H](OC(=O)c4ccccc4)[C@H]21)C3(C)C [Ig, 4-Deacetyl-3′-N-debenzoyl-3′-N-tertbutoxycarbonyl 4-O-methoxycarbonyl-paclitaxel]
[1]
  Oral Efficacy vs. Sc A2780 Log Cell Kill: 0.9
  Oral Efficacy vs. Sc A2780 (Cures/Treated): 0/8

## CC(=O)O[C@H]1C(=O)[C@@]2(C)[C@H]([C@H](OC(=O)c3ccccc3)[C@]3(O)C[C@H](OC(=O)[C@H](O)[C@@H](NC(=O)c4ccccc4)c4ccccc4)C(C)=C1C3(C)C)[C@]1(OC(C)=O)CO[C@@H]1C[C@@H]2O [paclitaxel]
Human or animal models; oral, up to 160 mg/kg/day, Suffness et al.
  Antitumor activity on oral administration: no evidence of antitumor activity
Human or animal models
  Oral activity in human or animal models: no oral activity
[2]
  Oral absorption: less than 1%
Human tumor xenografts
  Activity of orally administered paclitaxel against human tumor xenografts: unsuccessful

## COC(=O)OC12COC1CC(O)C1(C)C(=O)C(OC(C)=O)C3=C(C)C(OC(=O)C(O)C(NC(=O)OC(C)(C)C)C(C)C)CC(O)(C(OC(=O)c4ccccc4)C21)C3(C)C (centres unmarked) [Ib, 3′-N-tert-Butyloxycarbonyl-4-deacetyl-3′-dephenyl-3′-N-debenzoyl-3′-isopropyl-4-O-methoxycarbonyl-paclitaxel]
[1]
  Oral Efficacy vs. Sc A2780 Log Cell Kill: 3.0
  Oral Efficacy vs. Sc A2780 (Cures/Treated): 1/8

## COC(=O)OC12COC1CC(O)C1(C)C(=O)C(OC(C)=O)C3=C(C)C(OC(=O)C(O)C(NC(=O)c4ccco4)C(C)(C)C)CC(O)(C(OC(=O)c4ccccc4)C21)C3(C)C (centres unmarked) [Ik, 3′-N-Debenzoyl-3′-N-(2-furoyl)-3′-dephenyl-3′-tert-butyl-4-deacetyl-4-methoxycarbonyl Paclitaxel]
[1]
  Oral Efficacy vs. Sc A2780 Log Cell Kill: 2.2
  Oral Efficacy vs. Sc A2780 (Cures/Treated): 0/8

## CC(=O)O[C@@]12CO[C@@H]1C[C@H](O)[C@@]1(C)C(=O)[C@H](O)C3=C(C)[C@@H](OC(=O)[C@H](O)[C@@H](NC(=O)OC(C)(C)C)c4ccccc4)C[C@@](O)([C@@H](OC(=O)c4ccccc4)[C@H]21)C3(C)C [TAXOTERE®, docetaxel]
Human or animal models
  Oral activity in human or animal models: no oral activity

## CC(=O)O[C@H]1C(=O)[C@@]2(C)[C@H]([C@H](OC(=O)c3ccccc3)[C@]34OC(=O)O[C@H]3[C@H](OC(=O)[C@H](O)[C@H](CC(C)C)NC(=O)OC(C)(C)C)C(C)=C1C4(C)C)[C@]1(OC(C)=O)CO[C@@H]1C[C@@H]2O [IDN-5109]
Tumors in mice
  Oral activity against tumors in mice: oral activity against tumors in mice

## CCCCOC(=O)NC(c1ccccc1)C(O)C(=O)OC1CC2(O)C(OC(=O)c3ccccc3)C3C4(OC(=O)OC)COC4CC(O)C3(C)C(=O)C(OC(C)=O)C(=C1C)C2(C)C (centres unmarked) [Ih, 4-Deacetyl-3′-N-debenzoyl-3′-N-nbutoxycarbonyl-4-O-methoxycarbonyl-paclitaxel]
[1]
  Oral Efficacy vs. Sc A2780 Log Cell Kill: 1.0
  Oral Efficacy vs. Sc A2780 (Cures/Treated): 1/8

## COC(=O)OC12COC1CC(O)C1(C)C(=O)C(OC(C)=O)C3=C(C)C(OC(=O)C(O)C(NC(=O)OC4CCCCC4)C(C)(C)C)CC(O)(C(OC(=O)c4ccccc4)C21)C3(C)C (centres unmarked) [Ie, 3′-tert-Butyl-3′-N-cyclohexyloxycarbonyl-4-deacetyl-3′-dephenyl-3′-N-debenzoyl-4-O-methoxycarbonyl-paclitaxel]
[1]
  Oral Efficacy vs. Sc A2780 Log Cell Kill: 1.5
  Oral Efficacy vs. Sc A2780 (Cures/Treated): 0/8

## COC(=O)O[C@@]12CO[C@@H]1C[C@H](O)[C@@]1(C)C(=O)[C@H](OC(C)=O)C3=C(C)[C@@H](OC(=O)[C@H](O)[C@@H](NC(=O)CC(C)(C)C)C(C)(C)C)C[C@@](O)([C@@H](OC(=O)c4ccccc4)[C@H]21)C3(C)C [If, 3′-tert-Butyl-4-deacetyl-3′-dephenyl-3′-N-debenzoyl-3′-N-neopentylcarbonyl-4-O-methoxycarbonyl-paclitaxel]
[1]
  Oral Efficacy vs. Sc A2780 Log Cell Kill: 1.8
  Oral Efficacy vs. Sc A2780 (Cures/Treated): 0/8

## COC(=O)O[C@@]12CO[C@@H]1C[C@H](O)[C@@]1(C)C(=O)[C@H](OC(C)=O)C3=C(C)[C@@H](OC(=O)[C@H](O)[C@@H](NC(=O)C4CCC4)C(C)(C)C)C[C@@](O)([C@@H](OC(=O)c4ccccc4)[C@H]21)C3(C)C [Ij, 3′-N-Debenzoyl-3′-N-cyclobutylcarbonyl-3′-dephenyl-3′-tert-butyl-4-deacetyl-4-methoxycarbonyl Paclitaxel]
[1]
  Oral Efficacy vs. Sc A2780 Log Cell Kill: 2.1
  Oral Efficacy vs. Sc A2780 (Cures/Treated): 0/8

## 3′-N-Cyclobutyl-4-deacetyl-3′-N-debenzoyl-4-O-methoxycarbonyi-paciitaxel [Id]
[1]
  Oral Efficacy vs. Sc A2780 Log Cell Kill: 4.1
  Oral Efficacy vs. Sc A2780 (Cures/Treated): 0/8

## COC(=O)OC12COC1CC(O)C1(C)C(=O)C(OC(C)=O)C3=C(C)C(OC(=O)C(O)C(NC(=O)CC(C)(C)C)c4ccccc4)CC(O)(C(OC(=O)c4ccccc4)C21)C3(C)C (centres unmarked) [Ic, 3′-N-Neopentylcarbonyl-4-deacetyl-3′-N-debenzoyl-4-O-methoxycarbonyl-paclitaxel]
[1]
  Oral Efficacy vs. Sc A2780 Log Cell Kill: 3.8
  Oral Efficacy vs. Sc A2780 (Cures/Treated): 0/8
